21 molecules from US9067898B1, “Isothiazole derivatives as GPR120 agonists for the treatment of type II diabetes” (Janssen Pharmaceutica NV, priority 2014, dated 2015) can be followed below.

SMILES strings stand for the structures.

Type in all cases: cell-based
Assay [1] deals with T1, short form of the GPR120 receptor (GPR120S) (Homo sapiens, UniProt Q5NUL3).
T1 construct: host or cells: PathHunter CHO-K1 GPR120S β-Arrestin Cell Line
Kind of assay: Human GPR120 DiscoveRx PathHunter Beta-Arrestin assay, Procedure β-arrestin B. The settings on record: PathHunter CHO-K1 GPR120S β-Arrestin cell line, 5000 cells/well, read-out: hGPR120 β-arrestin B EC50. A digest of the protocol: (§1)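 PathHunter CHO-K1 β-arrestin cells expressed long-form GPR120 (Procedure A, 3000 cells/well) or short-form GPR120 (Procedure B, 5000 cells/well). Compounds were serially diluted from 25 µM and incubated 90 min at 37 °C in HBSS/20 mM HEPES/0.1% BSA, pH 7.4. Luminescence was read after 60 min detection at RT; EC50 comes from % activity versus positive control, Hill slope fixed at 1.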

A further assay deals with T2, Human GPR120 short form (Homo sapiens, UniProt Q5NUL3).
T2 construct: expressed in transfected cells
T2 sequence (Q5NUL3 1-361): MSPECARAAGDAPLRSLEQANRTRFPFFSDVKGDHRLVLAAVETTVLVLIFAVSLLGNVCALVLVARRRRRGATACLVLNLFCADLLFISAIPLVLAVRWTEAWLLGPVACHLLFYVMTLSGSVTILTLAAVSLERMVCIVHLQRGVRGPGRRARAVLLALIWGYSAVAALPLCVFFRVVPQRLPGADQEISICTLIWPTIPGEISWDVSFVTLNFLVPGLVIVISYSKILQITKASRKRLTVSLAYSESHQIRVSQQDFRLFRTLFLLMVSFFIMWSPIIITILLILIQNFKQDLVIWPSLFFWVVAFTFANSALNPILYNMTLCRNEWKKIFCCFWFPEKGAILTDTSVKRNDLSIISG
The assay can be described thus: Human GPR120 calcium flux assay (FLIPR), Procedure Calcium B. The settings on record: HEK-293 cells expressing human GPR120 short form, 4200 cells/well; read-out: GPR120 Ca2+ Assay B EC50. An excerpt:
This in vitro assay serves to assess test compound agonist activity against the short splice variant (SVS with Accession number NM_001195755.1 confirmed by sequencing data) of the GPR120 receptor. The Human Short splice variant #2 (NM_001195755.1) is missing an in-frame coding exon compared to variant 1 (the Human Long splice variant NM_181745.3), resulting in a shorter isoform (GPR120-S) lacking a 16 aa protein segment compared to isoform GPR120-L. The assay platform utilizes HEK-293 cells stably transfected to express the Human GPR120 short form. These cells are first loaded with the Ca^+2 sensitive dye, Fluo-4 NW. Upon stimulation, intracellular released Ca^+2 can bind to the dye and alter its fluorescence intensity. This increase in fluorescence signal, and thus the flux in intracellular [Ca^2+], is detected and quantitated by fluorescence imaging using a FLIPR reader. The effect of the agonist is measured as a function of concentration and used to calculate an EC50 based upon a response curve.
In this procedure 4200 cells/well were employed.
A Human GPR120 clone (Genbank accession number NM_001195755.1) was placed into the pcDNA3.1 mammalian expression vector carrying the neomycin resistance gene. A stable mammalian cell was generated by placing the above clone into a HEK293 background. Clonal cells responding to long chain fatty acids had expression levels of GPR120 confirmed by RT-qPCR. Human HEK-GPR120 cells were cultured in Dulbecco's Modified Eagle's Medium (DMEM)/F12 medium supplemented with 10% fetal bovine serum (FBS), 1% L-Glutamine and 1% penicillin/streptomycin and 0.5 mg/ml G-418. Cells were split 2 times a week to keep the cells in the log-phase growth.
In preparation for the assay, HEK cells stably transfected with Human GPR120 (2.5K cells per well in 25 uL growth medium) were seeded into 384-well plates and then incubated overnight (37° C., 5% CO2). The next day, the media was changed to 20 μL assay buffer and the cell starved for 1 h at 37° C. The dye loading solution (2× dye) was prepared using 10 mL assay buffer, 100 μL of 250 mM probenecid, 1 bottle of Component A, and 20 μl of dye in DMSO. Twenty μL of the 2× dye loading buffer was then added to each well. The plates were incubated at 37° C. for 30 min, then at room temperature for an additional 15 minutes, before performing the assay on FLIPR. Test compounds were prepared in assay buffer (2 uL of cpd+198 uL assay buffer, final DMSO in assay plate is 0.2%) at the desired concentration, more particularly at 100, 50, 25, 12.5, 6.25, 3.125, 1.562, 0.781, 0.391, 0.195, 0.098, 0.049, 0.024 and 0.012 μM.
The assay was performed on a FLIPR plate reader using the following parameters. Baseline was read for 10 seconds at 1 sec intervals. The program was set to transfer 10 μL of ligand from compound plate to cell plate after baseline reading. Aspiration was executed at: 10 μL/sec speed, 4.6 μL height; Dispensing was executed at: 30 μL/sec speed, 45 μL height. After compound addition, each well was read for 300 sec, with measurements collected at 1 sec intervals.
The kinetic data from the FLIPR was based upon a 5 minute window for data collection. The fluorescence of each sample well was used for individual calculations of a normalized RFU value, which was defined as maximum response minus the minimum response. The normalized fluorescence reading (RFU) was calculated as follows: RFU=Fmax−Fmin The data were fitted to a sigmoidal dose-response curve with a variable Hill slope (<2) using nonlinear regression with GraphPad Prism 5.0 to calculate the EC50 values. The Fitting Equation was: Y=Bottom+(Top−Bottom)/(1+10^((Log EC50−X)*HillSlope)), where X is the log of the concentration and Y is the response.
(In general: Calcium flux is commonly read through the fluorescence of an indicator in the cells.)

Assay [2] concerns the target T3, long form of human GPR120 (Homo sapiens, UniProt Q5NUL3).
T3 construct: host or cells: PathHunter CHO-K1 GPR120 β-Arrestin Cell Line
The assay can be described thus: Human GPR120 DiscoveRx PathHunter Beta-Arrestin assay, Procedure β-arrestin A. The settings on record: PathHunter CHO-K1 GPR120 β-Arrestin cell line, 3000 cells per well, read-out: hGPR120 β-arrestin A EC50. A digest of the protocol:
as §1

T1 sequence (P32121 whole entry partner, one chain of several): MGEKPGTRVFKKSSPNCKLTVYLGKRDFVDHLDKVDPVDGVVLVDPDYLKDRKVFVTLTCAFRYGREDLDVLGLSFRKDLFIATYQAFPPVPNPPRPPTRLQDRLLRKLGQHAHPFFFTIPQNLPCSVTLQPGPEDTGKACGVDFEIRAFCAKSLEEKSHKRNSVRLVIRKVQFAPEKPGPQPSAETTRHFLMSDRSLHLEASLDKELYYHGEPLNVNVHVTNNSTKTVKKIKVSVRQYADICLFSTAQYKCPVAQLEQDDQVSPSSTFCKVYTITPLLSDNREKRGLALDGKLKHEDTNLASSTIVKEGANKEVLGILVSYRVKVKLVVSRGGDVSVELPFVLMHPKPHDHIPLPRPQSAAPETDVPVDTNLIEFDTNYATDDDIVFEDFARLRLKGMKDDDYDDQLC
T3 sequence (Q5NUL3 1-377 isoform Q5NUL3-1): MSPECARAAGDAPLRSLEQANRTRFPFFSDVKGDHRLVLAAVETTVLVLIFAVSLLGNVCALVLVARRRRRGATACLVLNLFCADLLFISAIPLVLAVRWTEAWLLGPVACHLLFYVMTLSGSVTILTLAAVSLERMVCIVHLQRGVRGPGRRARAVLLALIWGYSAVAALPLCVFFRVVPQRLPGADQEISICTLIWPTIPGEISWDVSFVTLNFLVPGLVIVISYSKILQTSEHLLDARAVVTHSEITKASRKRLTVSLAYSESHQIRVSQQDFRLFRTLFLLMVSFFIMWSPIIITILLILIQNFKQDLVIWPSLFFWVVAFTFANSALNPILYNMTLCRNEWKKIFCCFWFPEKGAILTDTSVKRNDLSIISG
T3 sequence (P32121 whole entry partner): as the sequence (P32121 whole entry partner, one chain of several) above

As usually defined, the EC50 is the concentration that produces a half-maximal response. For the molecule `Cc1cc(OCc2c(-c3ccc(Cl)cc3)nsc2C(F)(F)F)c(F)cc1CCCO` [Cpd 63, 3-(4-((3-(4-chlorophenyl)-5-(trifluoromethyl)isothiazol-4-yl)methoxy)-5-fluoro-2-methylphenyl)propan-1-61], the EC50 is 0.122 µM in assay [1] and 0.2 µM at Human GPR120 short form.
As for `CCc1ccc(-c2nsc(C(C)C)c2COc2ccc(CCC(=O)O)c(C)c2C)cc1` [Cpd 64, 3-(4-[[3-(4-ethylphenyl)-5-(propan-2-yl)-1,2-thiazol-4-yl]methoxy]-2,3-dimethylphenyl)propanoic acid], the EC50 on Human GPR120 short form came to 0.923 µM.
For `Cc1ccc(-c2snc(Cl)c2COc2c(F)cc(CCC(=O)O)cc2F)c(F)c1` [Cpd 252, 3-(4-{[3-Chloro-5-(2-fluoro-4-methylphenyl)isothiazol-4-yl]methoxy}-3,5-difluorophenyl)propanoic acid], the EC50 at Human GPR120 short form came to 0.045 µM; in assay [2], 0.191 µM.
For the molecule `Cc1ccccc1-c1snc(Cl)c1COc1ccc(CCC(=O)O)c(C(F)(F)F)c1` [Cpd 253, 3-[4-{[3-Chloro-5-(2-methylphenyl)isothiazol-4-yl]methoxy}-2-(trifluoromethyl)phenyl]propanoic acid], the EC50 on Human GPR120 short form was found to be 0.349 µM.
As to `Cc1ccccc1-c1snc(Cl)c1COc1ccc(CCC(=O)O)cc1` [Cpd 254, 3-(4-{[3-Chloro-5-(2-methylphenyl)isothiazol-4-yl]methoxy}phenyl)propanoic acid], the EC50 at Human GPR120 short form stood at 0.401 µM.
In the case of `Cc1ccc(-c2snc(Cl)c2COc2ccc(CCC(=O)O)cc2)c(C)c1` [Cpd 255, 3-(4-{[3-Chloro-5-(2,4-dimethylphenyl)isothiazol-4-yl]methoxy}phenyl)propanoic acid], the EC50 on Human GPR120 short form is 0.55 µM.
Turning to `Cc1ccc(-c2snc(Cl)c2COc2ccc(CCC(=O)O)c(C(F)(F)F)c2)c(C)c1` [Cpd 256, 3-[4-{[3-Chloro-5-(2,4-dimethylphenyl)isothiazol-4-yl]methoxy}-2-(trifluoromethyl)phenyl]propanoic acid], the EC50 on Human GPR120 short form was found to be 0.986 µM.
On to `Cc1cc(OCc2c(Cl)nsc2-c2ccccc2C)ccc1CCC(=O)O` [Cpd 257, 3-(4-{[3-Chloro-5-(2-methylphenyl)isothiazol-4-yl]methoxy}-2-methylphenyl)propanoic acid], for which the EC50 at Human GPR120 short form was 1.06 µM.
On the same count and under the same terms, the value for `COc1cc(OCc2c(Cl)nsc2-c2ccc(C)cc2F)ccc1CCC(=O)O` [Cpd 258, 3-(4-{[3-Chloro-5-(2-fluoro-4-methylphenyl)isothiazol-4-yl]methoxy}-2-methoxyphenyl)propanoic acid] was 0.21 µM.
The same measure, in the same setting: with `O=C(O)CCc1ccc(OCc2c(Cl)nsc2-c2ccccc2Cl)cc1C(F)(F)F` [Cpd 259, 3-[4-{[3-Chloro-5-(2-chlorophenyl)isothiazol-4-yl]methoxy}-2-(trifluoromethyl)phenyl]propanoic acid] the figure was 0.261 µM.
With `COc1ccccc1-c1snc(Cl)c1COc1ccc(CCC(=O)O)c(C(F)(F)F)c1` [Cpd 260, 3-[4-{[3-Chloro-5-(2-methoxyphenyl)isothiazol-4-yl]methoxy}-2-(trifluoromethyl)phenyl]propanoic acid], the EC50 on Human GPR120 short form turned out to be 3.43 µM.
Consider `N#Cc1ccc(-c2nsc(C(F)(F)F)c2COc2c(F)cc(CCC(=O)O)cc2F)cc1` [Cpd 261, 3-(4-{[3-(4-Cyanophenyl)-5-(trifluoromethyl)isothiazol-4-yl]methoxy}-3,5-difluorophenyl)propanoic acid], for which the EC50 in assay [1] turned out to be 0.332 µM; on Human GPR120 short form, 0.672 µM.
Take `OCCCc1cc(F)c(OCc2c(-c3ccc(Cl)cc3F)nsc2C(F)(F)F)c(F)c1` [Cpd 262, 3-(4-{[3-(4-Chloro-2-fluorophenyl)-5-(trifluoromethyl)isothiazol-4-yl]methoxy}-3,5-difluorophenyl)propan-1-ol]: the EC50 in assay [1] is 0.08 µM; at Human GPR120 short form it was 0.139 µM.
As to `Cc1c(CCC(=O)O)ccc(OCc2c(-c3ccc(C#N)cc3)nsc2C(F)(F)F)c1C` [Cpd 264, 3-(4-{[3-(4-Cyanophenyl)-5-(trifluoromethyl)isothiazol-4-yl]methoxy}-2,3-dimethylphenyl)propanoic acid], the EC50 was determined as 0.667 µM in assay [1] and 0.379 µM at Human GPR120 short form.
`CC(Cc1cc(F)c(OCc2c(-c3ncc(Cl)cc3F)nsc2C(F)(F)F)c(F)c1)C(=O)O` (stereo not shown) [Cpd 265, 3-(4-{[3-(5-Chloro-3-fluoropyridin-2-yl)-5-(trifluoromethyl)isothiazol-4-yl]methoxy}-3,5-difluorophenyl)-2-methylpropanoic acid]: the EC50 in assay [1] was determined as 0.527 µM; on Human GPR120 short form it was 0.248 µM.
In the same order, the values of `CC(Cc1ccc(OCc2c(-c3ncc(Cl)cc3F)nsc2C(F)(F)F)c(F)c1)C(=O)O` (stereo not shown) [Cpd 266, 3-(4-{[3-(5-Chloro-3-fluoropyridin-2-yl)-5-(trifluoromethyl)isothiazol-4-yl]methoxy}-3-fluorophenyl)-2-methylpropanoic acid] are 0.982 µM and 0.289 µM.
Take `O=C(O)CCc1ccc(OCc2c(-c3ccc(Cl)cc3)nsc2C(F)(F)F)cc1C(F)F` [Cpd 274, 3-[4-{[3-(4-Chlorophenyl)-5-(trifluoromethyl)isothiazol-4-yl]methoxy}-2-(difluoromethyl)phenyl]propanoic acid]: the half-maximal effective concentration (EC50) at Human GPR120 short form came to 3.98 µM.
As for `Cc1cc(OCc2c(-c3ccc(Cl)cc3)nsc2C(F)(F)F)ccc1CCC(=O)O` [Cpd 275, 3-(4-{[3-(4-Chlorophenyl)-5-(trifluoromethyl)isothiazol-4-yl]methoxy}-2-methylphenyl)propanoic acid], the EC50 on Human GPR120 short form was found to be 1.11 µM.
With `CC1CC=C(c2snc(Cl)c2COc2ccc(CCC(=O)O)c(C(F)(F)F)c2)CC1` (stereo not shown) [Cpd 276, 3-[4-{[3-Chloro-5-(4-methylcyclohex-1-en-1-yl)isothiazol-4-yl]methoxy}-2-(trifluoromethyl)phenyl]propanoic acid], at Human GPR120 short form, the 50% effective concentration (EC50) was 0.886 µM.
As to `Cc1ccc(-c2snc(Cl)c2COc2ccc(CCC(=O)O)c(C(C)(F)F)c2)cc1` [Cpd 278, 3-[4-{[3-Chloro-5-(4-methylphenyl)isothiazol-4-yl]methoxy}-2-(1,1-difluoroethyl)phenyl]propanoic acid], the EC50 on Human GPR120 short form amounted to 0.601 µM.
The same measure, in the same setting: with `Cc1ccc(-c2snc(Cl)c2COc2ccc(CCC(=O)O)c(C(C)F)c2)cc1` (stereo not shown) [Cpd 279, 3-[4-{[3-Chloro-5-(4-methylphenyl)isothiazol-4-yl]methoxy}-2-(1-fluoroethyl)phenyl]propanoic acid] the figure was 0.755 µM.
